The values below come from patent US9107415B2, “2-(substituted-phenyl)-cyclopentane-1,3-dione compounds, and derivatives thereof” (Syngenta Limited, priority 2011, dated 2015).

For one data set, the system named is Avena fatua (AVEFA). The experiment in a line: Biological Example 4B (not-previously-formulated compounds) post-emergence herbicidal activity on grassy weeds. It counts as in vivo. The conditions noted are these: 14 DAA, technical compound in IF50 + Adigor, mean of two. How it is done: (§1) Seeds of a variety of test species are sown in standard soil in pots. After cultivation for 14 days under controlled conditions in a glasshouse (at 22/16°C., day/night; 16 hours light; 65% humidity), the plants are sprayed with an aqueous spray solution derived from the formulation of the technical active ingredient dissolved in acetone plus IF50 containing
(§2) 10.56 wt % Emulsogen™EL (castor oil ethoxylate, CAS Registry number 61791-12-6)
(§3) 42.22 wt % N-Methyl pyrrolidone
(§4) 42.22 wt % dipropylene glycol monoethyl ether
(§5) at a 1:20 ratio of (technical active ingredient:IF50). The adjuvant Adigor™(an adjuvant containing inter alia methylated rapeseed oil, e.g. available from Syngenta) is added to form a 0.5% v/v solution. The test plants are then grown on under controlled conditions in the glasshouse (at 22/16°C., day/night; 16 hours light; 65% humidity) and are watered twice daily. After 14 days the test is evaluated (100%=total damage to plant; 0%=no damage to plant).
(§6) […] Herbicidal activity (phytotoxicity) is evaluated visually, and an assessed percentage phytotoxicity score is given for each herbicidal application on each plant species (with 100%=total damage to plant; 0%=no damage to plant). Two repetitions are made for each experiment, and the mean herbicidal activity (phytotoxicity) data is reported.
(§7) Test plants: Avena fatua (AVEFA), Lolium multiflorum (LOLMU), Setaria viridis (SETVI), Poa annua (POAAN), Alopecurus myosuroides (ALOMY). All five of these are grassy monocotyledonous weeds.

The subject of a further data set is Setaria viridis (SETVI). The data set is described as above. It counts as in vivo. The following applies: 14 DAA, technical compound in IF50 + Adigor, mean of two. How it is done:
as §1, §2, §3, §4, §5, §6, §7

In data set [1] the test system is Alopecurus myosuroides (ALOMY). The description is as above. The following applies: 14 DAA, technical compound in IF50 + Adigor, mean of two. It counts as in vivo. How it is done:
as §1, §2, §3, §4, §5, §6, §7

For the next data set, the system named is Poa annua (POAAN). The data set is described as above. It counts as in vivo. The following applies: 14 DAA, technical compound in IF50 + Adigor, mean of two. How it is done: as §1, §2, §3, §4, §5, §6, §7
Data set [2] deals with Echinochloa crus-galli (ECHCG). The experiment in a line: Biological Example 1 glasshouse screen, post-emergence herbicidal activity. It counts as in vivo. The following applies: 312 h, application rate 250 g/ha, evaluated after 13 days, read-out: ECHCG percentage phytotoxicity. In outline: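 Read-out: visual percentage phytotoxicity at 13 days, 0% no damage to 100% total damage. Spray solution of unformulated compound in 50:50 acetone/water plus 0.5% Tween 20, applied to potted plants one day after sowing (pre) or after 8 days' growth (post).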

Data set [3] relates to Spring Barley “Harrington”. Description: Biological Example 4B post-emergence phytotoxicity on cereal crops. It counts as in vivo. The following applies: 15 g/ha, cloquintocet-mexyl 50 g/ha, 14 DAA, technical compound in IF50 + Adigor, mean of two.
Data set [4] can be described thus: Biological Example 5B “RASP” soil persistence method. The following applies: 18 Acres soil. How it is done:
Field soil (of the type “18 Acres”, as described in Biological Example 5A and Table 5.1 above) is sieved to 2 mm. The sieved soil is wetted up with distilled water, mixing thoroughly until it reaches “field capacity”. […] Usually, the moisture content of the soil used is about 25%.
For each compound tested, 6×50 mL polypropylene centrifuge tubes containing 10 g±0.5 g of soil at field capacity are used. Each tube lid has a 2 mm hole to allow for air circulation during the incubation period.
4×10 microliters of treatment solutions of the compounds to be tested are applied to the surface of the soil in groups of 6 tubes. 4×10 microliter drops are also dispensed into the treatment check vials and these are diluted to 1 mL with acetonitrile; at this point additional samples can be prepared for HPLC method development if required.
Two of the tubes containing the treated soil are capped and immediately frozen as T0 (day zero) samples. The remaining four samples are capped with lids containing a 2 mm hole drilled into the lid and incubated in controlled environment cabinets for the correct time interval at 20°C., 80% relative humidity.
After both one and four weeks incubation, two tubes from each treatment are removed from the cabinets, the lids are replaced for ones lacking ventilation holes and the tubes are frozen. When the samples are ready for analysis, a zero time, 1 week and 4 week sample for each compound is removed from the freezer and allowed to thaw. Immediately after thawing, 40 mL of extraction solution is added to the samples.
Samples are extracted using a mixture such as 80:20 (v/v) acetonitrile/1 M ammonium hydroxide solution. […]
All samples from the test are analysed by UPLC-MS. […]
For each compound, the molecular ion giving the best sensitivity is chosen and a single ion monitoring method is set up. The method development samples are re-analysed using the selected ion monitoring methods to check that suitable sensitivity is obtained.
Degradation kinetics, and an estimated half-life (T½) of the compound in the soil, can then be calculated using simple first order assumptions.

[5] abbreviates: 30 g/ha, cloquintocet-mexyl 50 g/ha.
Setting [6] is: 60 g/ha, cloquintocet-mexyl 0 g/ha.
[7] abbreviates: 60 g/ha, cloquintocet-mexyl 50 g/ha.
[8] abbreviates: 15 g/ha, cloquintocet-mexyl 50 g/ha.

Consider `CC#Cc1cc(C)c(C2=C(O)CC(Cc3ccc(C)cn3)C2=O)c(C)c1` (stereo not drawn) [Compound A-8], for which the values for the AVEFA % phytotoxicity in the data set on Avena fatua (AVEFA) (setting [5]), in the data set on Avena fatua (AVEFA) (setting [6]) and in the data set on Avena fatua (AVEFA) (setting [7]) were 45%, 97% and 95%, respectively. Moreover, the SETVI % phytotoxicity turned out to be 55% with Setaria viridis (SETVI) (setting [5]), 75% with Setaria viridis (SETVI) (setting [6]) and 75% in the data set on Setaria viridis (SETVI) (setting [7]). The ALOMY % phytotoxicity in data set [1] (setting [5]) is reported as 63%; in data set [1] (setting [6]), 94%; in data set [1] (setting [7]), 94%. Further, the results for the POAAN % phytotoxicity in the data set with Poa annua (POAAN) (setting [5]), with Poa annua (POAAN) (setting [6]) and in the data set with Poa annua (POAAN) (setting [7]) were 65%, 80% and 75%, respectively. Also, the pest or weed control at 250 g/ha in data set [2] was 100%.

With `CC#Cc1cc(C)c(C2=C(O)CC(Cc3ccc(F)cn3)C2=O)c(C)c1` (stereo not drawn) [Compound A-11], the AVEFA % phytotoxicity turned out to be 50% in the data set with Avena fatua (AVEFA) (setting [5]), 93% in the data set with Avena fatua (AVEFA) (setting [6]) and 88% with Avena fatua (AVEFA) (setting [7]). The results for the SETVI % phytotoxicity with Setaria viridis (SETVI) (setting [5]), with Setaria viridis (SETVI) (setting [6]) and with Setaria viridis (SETVI) (setting [7]) were 89%, 98% and 97%, respectively. The ALOMY % phytotoxicity in data set [1] (setting [5]) came to 73%; in data set [1] (setting [6]), 85%; in data set [1] (setting [7]) it was 85%. In addition, the POAAN % phytotoxicity is 70% in the data set on Poa annua (POAAN) (setting [5]), 75% in the data set with Poa annua (POAAN) (setting [6]) and 75% in the data set with Poa annua (POAAN) (setting [7]). For the same compound, the pest or weed control at 250 g/ha in data set [2] came out at 100%.

Turning to `CC#Cc1cc(C)c(C2=C(O)CC(Cc3ccc(C#N)cn3)C2=O)c(C)c1` (stereo not drawn) [Compound A-14], the AVEFA % phytotoxicity came to 38% with Avena fatua (AVEFA) (setting [5]), 83% with Avena fatua (AVEFA) (setting [6]) and 80% in the data set on Avena fatua (AVEFA) (setting [7]). Besides, the SETVI % phytotoxicity in the data set with Setaria viridis (SETVI) (setting [5]) turned out to be 99%; with Setaria viridis (SETVI) (setting [6]), 100%; in the data set with Setaria viridis (SETVI) (setting [7]), 100%. Besides, the ALOMY % phytotoxicity amounted to 78% in data set [1] (setting [5]), 97% in data set [1] (setting [6]) and 97% in data set [1] (setting [7]). For the same compound, the results for the POAAN % phytotoxicity with Poa annua (POAAN) (setting [5]), in the data set on Poa annua (POAAN) (setting [6]) and with Poa annua (POAAN) (setting [7]) were 83%, 85% and 85%, respectively. Further, the pest or weed control at 250 g/ha in data set [2] amounted to 100%.

For `CC#Cc1cc(C)c(C2C(=O)CC(Cc3ccn(C)n3)C2=O)c(C)c1` (stereo not drawn) [Compound A-19], the AVEFA % phytotoxicity with Avena fatua (AVEFA) (setting [8]) is 88%; in the data set on Avena fatua (AVEFA) (setting [5]), 90%; in the data set on Avena fatua (AVEFA) (setting [6]), 99%; in the data set with Avena fatua (AVEFA) (setting [7]), 99%. Also, the SETVI % phytotoxicity was determined as 99% with Setaria viridis (SETVI) (setting [8]), 100% in the data set with Setaria viridis (SETVI) (setting [5]), 100% in the data set with Setaria viridis (SETVI) (setting [6]) and 100% in the data set on Setaria viridis (SETVI) (setting [7]). Moreover, the ALOMY % phytotoxicity stood at 99% in data set [1] (setting [8]), 100% in data set [1] (setting [5]), 100% in data set [1] (setting [6]) and 100% in data set [1] (setting [7]). In addition, the POAAN % phytotoxicity in the data set with Poa annua (POAAN) (setting [8]) is recorded as 75%; with Poa annua (POAAN) (setting [5]), 80%; with Poa annua (POAAN) (setting [6]), 92%; with Poa annua (POAAN) (setting [7]) it was 92%. The pest or weed control at 250 g/ha in data set [2] turned out to be 100%. Further, the “Spring Barley “Harrington” phytotoxicity (%)” value in data set [3] was 3%. Also, in data set [4] (0 weeks), the “RASP Test: % of compound remaining at 0 weeks” value was determined as 80%. In addition, in data set [4] (1 week incubation at 20°C), the “RASP Test: % of compound remaining at 1 week” value was 79%. Besides, the “RASP Test: % of compound remaining at 4 weeks” value in data set [4] (4 weeks incubation at 20°C) turned out to be 80%.
